# Test results taken from patent publication US8586751B2, “Nicotinamide compounds useful as kinase modulators” (Bristol-Myers Squibb Company, priority 2009, dated 2013).
# Where two headings read alike, the source gives them in different places.
# Tests used:
# [1] = test system: Ramos B cells with beta-lactamase reporter gene under control of an NFAT response element; experiment: NFAT-bla RA1 Reporter Assay (Ramos-NFAT); format: cell-based, human; conditions: read-out: IMM Ramos-NFAT (IC50)
# Description: NFAT-bla RA1 Reporter Assay
# Ramos B cells containing a stable integration of a beta-lactamase reporter gene under the control of an NFAT response element (NFAT-bla RA1, Invitrogen, K1434) at a density of 100×10^3 cells/well were incubated with test compounds at 37° C. for 30 min prior to stimulation with F(ab′)2 anti-human IgM (Jackson ImmunoResearch, 109-006-129) at 2.5 μg/ml for 4.5 hrs at 37° C. After stimulation, LiveBLAzer-FRET B/G substrate (CCF2/AM, or CCF4/AM, Invitrogen) was added to each well and incubated for 90 min at room temperature in the dark. Assay plates were read on an LJL Analyst, with raw emission values subtracted from a media-only blank containing substrate in assay media (no cells). The ratios of 460 nm/530 nm emission (405 nm excitation) were used to calculate the amount of stimulation.
# human recombinant Btk = molecular target: T1, human recombinant Btk (Homo sapiens, UniProt Q06187); experiment: Human Recombinant Btk Enzyme Assay (LLE_BTK); format: biochemical
# T1 construct: purchased Invitrogen Corporation
# Description: Human Recombinant Btk Enzyme Assay
# To V-bottom 384-well plates were added test compounds, human recombinant Btk (1 nM, Invitrogen Corporation), fluoresceinated peptide (1.5 μM), ATP (20 μM), and assay buffer (20 mM HEPES pH 7.4, 10 mM MgCl2, 0.015% Brij35 and 4 mM DTT in 1.6% DMSO), with a final volume of 30 μL. After incubating at room temperature for 60 min, the reaction was terminated by adding 45 μl of 35 mM EDTA to each sample. The reaction mixture was analyzed on the Caliper LABCHIP® 3000 (Caliper, Hopkinton, Mass.) by electrophoretic separation of the fluorescent substrate and phosphorylated product. Inhibition data were calculated by comparison to no enzyme control reactions for 100% inhibition and no inhibitor controls for 0% inhibition. Dose response curves were generated to determine the concentration required inhibiting 50% of kinase activity (IC50). Compounds were dissolved at 10 mM in dimethylsulfoxide (DMSO) and evaluated at eleven concentrations.
# Using this assay, the following IC50 values derived by non-linear regression analysis were determined and compared to those values of certain compounds in U.S. Publication No. 2007/078136 and U.S. Publication No. 2008/045536.
# T1 sequence (Q06187 whole entry): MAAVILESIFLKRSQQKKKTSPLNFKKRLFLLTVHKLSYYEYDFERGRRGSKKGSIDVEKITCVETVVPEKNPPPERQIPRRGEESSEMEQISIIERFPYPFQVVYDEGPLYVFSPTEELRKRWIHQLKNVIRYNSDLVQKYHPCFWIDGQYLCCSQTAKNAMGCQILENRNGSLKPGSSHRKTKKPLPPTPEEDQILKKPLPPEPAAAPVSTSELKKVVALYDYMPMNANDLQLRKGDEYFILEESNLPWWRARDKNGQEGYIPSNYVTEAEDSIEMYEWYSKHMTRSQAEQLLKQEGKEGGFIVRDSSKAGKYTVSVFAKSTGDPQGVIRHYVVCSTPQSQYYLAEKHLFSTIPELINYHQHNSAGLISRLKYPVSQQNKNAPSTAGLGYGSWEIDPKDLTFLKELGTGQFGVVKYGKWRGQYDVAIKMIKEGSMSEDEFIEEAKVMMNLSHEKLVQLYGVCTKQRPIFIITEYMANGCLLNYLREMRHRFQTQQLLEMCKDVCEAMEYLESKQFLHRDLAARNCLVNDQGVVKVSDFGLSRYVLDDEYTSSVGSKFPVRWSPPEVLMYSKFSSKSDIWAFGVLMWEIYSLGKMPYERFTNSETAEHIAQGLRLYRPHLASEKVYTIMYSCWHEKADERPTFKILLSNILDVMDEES
Compound,"IC50 ([1]; Homo sapiens, Ramos)",IC50 (human recombinant Btk),IC50 [1]
NC(=O)c1cc(F)c(N2CCC[C@@H](NC(=O)c3ccccc3)C2)nc1Nc1ccc(N2CCOCC2)cc1 [Example 422],120 nM,20 nM,–
COc1ccc([C@H](C)N[C@H]2CCC[C@H](c3nc(Nc4ccc(N5CCOCC5)cc4)c(C(N)=O)cc3F)C2)cc1 [Example 435],4500 nM,1300 nM,–
COc1ccc([C@H](C)N[C@H]2CCC[C@@H](c3nc(Nc4ccc(N5CCOCC5)cc4)c(C(N)=O)cc3F)C2)cc1 [Example 436],7900 nM,2200 nM,–
NC(=O)c1cc(F)c(N2CCC[C@@H](NC(=O)Nc3nccs3)C2)nc1Nc1ccc(N2CCOCC2)c(F)c1 [Example 451],80 nM,0.8 nM,–
CN(C)CCc1ccc(Nc2nc(N3CCC[C@@H](NC(=O)Nc4nncs4)C3)c(F)cc2C(N)=O)cc1 [Example 462],250 nM,2 nM,–
CN(C)CCc1ccc(Nc2nc(N3CCCC(F)(F)C3)c(F)cc2C(N)=O)cc1 [Example 475],100 nM,20 nM,–
CN1CCN(c2ccc(Nc3nc(N4CCC[C@@H](NC(=O)Nc5nccs5)C4)c(F)cc3C(N)=O)cc2F)CC1 [Example 480],40 nM,0.2 nM,–
CN1CCC(c2ccc(Nc3nc(N4CCC[C@@H](NC(=O)c5ccccc5)C4)c(F)cc3C(N)=O)cc2)CC1 [Example 490],270 nM,3 nM,–
CN1CCC(c2ccc(Nc3nc(N4CCC[C@@H](NC(=O)c5ccc(F)cc5)C4)c(F)cc3C(N)=O)cc2)CC1 [Example 491],200 nM,2 nM,–
CN1CCC(C)(c2ccc(Nc3nc(N4CCC[C@@H](NC(=O)Nc5ncc(F)s5)C4)c(F)cc3C(N)=O)cc2)CC1 [Example 495],80 nM,1 nM,–
CN1CCC(C)(c2ccc(Nc3nc(N4CCC[C@@H](NC(=O)c5ccccc5)C4)c(F)cc3C(N)=O)cc2)CC1 [Example 518],30 nM,2 nM,–
NC(=O)c1cc(F)c(N2CCC[C@@H](NC(=O)Nc3nccs3)C2)nc1Nc1ccc(CCN2CCC2)cc1 [Example 547],50 nM,1 nM,–
NC(=O)c1cc(F)c(N2CCC[C@@H](NC(=O)Nc3nccs3)C2)nc1Nc1ccc(CCn2ccnc2)cc1 [Example 548],270 nM,2 nM,–
NC(=O)c1cc(F)c(N2CCC[C@@H](NC(=O)Nc3nccs3)C2)nc1Nc1ccc(CCN2CCCC2)cc1 [Example 549],30 nM,0.7 nM,–
C[N+](C)([O-])CCc1ccc(Nc2nc(N3CCC[C@@H](NC(=O)Nc4nccs4)C3)c(F)cc2C(N)=O)cc1 [Example 552],5400 nM,1 nM,–
CN1CCC(C)(c2ccc(Nc3nc(N4CCC[C@@H](NC(=O)Nc5nccs5)C4)c(F)cc3C(N)=O)cc2)CC1 [Example 554],40 nM,0.7 nM,–
CN1CCCC(c2ccc(Nc3nc(N4CCC[C@@H](NC(=O)Nc5nnc(C(F)(F)F)s5)C4)c(F)cc3C(N)=O)cc2)C1 (stereo partly drawn) [Example 559],70 nM,2 nM,–
CN1CCC(C)(c2ccc(Nc3nc(N4CCC[C@@H](N5CCCC5=O)C4)c(F)cc3C(N)=O)cc2)CC1 [Example 566],90 nM,3 nM,–
CN1CCC(O)(c2ccc(Nc3nc(N4CCC[C@@H](N5CCCC5=O)C4)c(F)cc3C(N)=O)cc2)C(C)(C)C1 (stereo partly drawn) [Example 568],120 nM,1 nM,–
CN1CCC(C)(c2ccc(Nc3nc(N4CCCC5(CC(c6ccccc6)=NO5)C4)c(F)cc3C(N)=O)cc2)CC1 (stereo not drawn) [Example 571],150 nM,2 nM,–

# Second part, the compound after the results:
"IC50 ([1]; Homo sapiens, Ramos)",IC50 (human recombinant Btk),IC50 [1],Compound
180 nM,1 nM,–,CN1CCN(c2ccc(Nc3nc(N4CCC[C@@H](N5CCCC5=O)C4)c(F)cc3C(N)=O)cc2)CC1 [Example 419]
40 nM,2 nM,–,NC(=O)c1cc(F)c(N2CCC[C@@H](NC(=O)Nc3nccs3)C2)nc1Nc1ccc(N2CCOCC2)cc1 [Example 421]
10000 nM,740 nM,–,NC(=O)c1cc(F)c(C2CCCC(OC(=O)c3ccccc3)C2)nc1Nc1ccc(N2CCOCC2)cc1 (stereo not drawn) [Example 430]
2900 nM,740 nM,–,COc1ccc([C@H](C)N[C@@H]2C=C(c3nc(Nc4ccc(N5CCOCC5)cc4)c(C(N)=O)cc3F)CCC2)cc1 [Example 437]
10000 nM,4300 nM,–,NC(=O)c1cc(F)c(N2CCC[C@@H](NC(=O)c3ccc(F)c(Cl)c3)C2)nc1Nc1ccc(F)cc1 [Example 456]
30 nM,0.6 nM,50 nM,CN(C)CCc1ccc(Nc2nc(N3CCC[C@@H](NC(=O)Nc4nccs4)C3)c(F)cc2C(N)=O)cc1 [Example 458]
70 nM,1 nM,–,CN1CCN(c2ccc(Nc3nc(N4CCC[C@@H](NC(=O)c5ccccc5)C4)c(F)cc3C(N)=O)cc2F)CC1 [Example 479]
170 nM,2 nM,–,CN1CCN(c2ccc(Nc3nc(N4CCC[C@@H](N5CCCC5=O)C4)c(F)cc3C(N)=O)cc2F)CC1 [Example 482]
100 nM,10 nM,–,CN1CCC(c2ccc(Nc3nc(N4CCCCC4)c(F)cc3C(N)=O)cc2)CC1 [Example 489]
20 nM,1 nM,–,CN1CCC(c2ccc(Nc3nc(N4CCC[C@@H](NC(=O)Nc5nccs5)C4)c(F)cc3C(N)=O)cc2)CC1 [Example 492]
130 nM,0.7 nM,–,CN1CCC(c2ccc(Nc3nc(N4CCC[C@@H](NC(=O)Nc5nncs5)C4)c(F)cc3C(N)=O)cc2)CC1 [Example 493]
80 nM,7 nM,–,NC(=O)c1cc(F)c(N2CCC[C@@H](NC(=O)c3ccccc3)C2)nc1Nc1ccc(N2CCS(=O)(=O)CC2)cc1 [Example 503]
150 nM,2 nM,–,CS(=O)(=O)c1ccc(Nc2nc(N3CCC[C@@H](NC(=O)c4ccccc4)C3)c(F)cc2C(N)=O)cc1 [Example 506]
140 nM,0.8 nM,–,CN(C)S(=O)(=O)c1ccc(Nc2nc(N3CCC[C@@H](NC(=O)c4ccccc4)C3)c(F)cc2C(N)=O)cc1 [Example 508]
10000 nM,3700 nM,–,CC(C)(C)OC(=O)N1CCCC(c2ccc(Nc3nc(N4CCCCC4)c(F)cc3C(N)=O)cc2)C1 (stereo not drawn) [Example 523]
5700 nM,1600 nM,–,CC(C)(C)OC(=O)N1CCC(O)(c2ccc(Nc3nc(N4CCCCC4)c(F)cc3C(N)=O)cc2)C(C)(C)C1 (stereo not drawn) [Example 524]
560 nM,0.9 nM,–,CN1CCN(C(=O)c2ccc(Nc3nc(N4CCC[C@@H](NC(=O)Nc5nccs5)C4)c(F)cc3C(N)=O)cc2)CC1 [Example 544]
160 nM,2 nM,–,NC(=O)c1cc(F)c(N2CCC[C@@H](NC(=O)Nc3nccs3)C2)nc1Nc1ccc(CCO)cc1 [Example 545]
230 nM,3 nM,–,CS(=O)(=O)c1ccc(Nc2nc(N3CCC[C@@H](NC(=O)Nc4nccs4)C3)c(F)cc2C(N)=O)cc1 [Example 546]
120 nM,2 nM,–,CC(C)(C)NCCc1ccc(Nc2nc(N3CCC[C@@H](NC(=O)Nc4nccs4)C3)c(F)cc2C(N)=O)cc1 [Example 550]
190 nM,3 nM,–,NC(=O)c1cc(F)c(N2CCC[C@@H](NC(=O)Nc3nccs3)C2)nc1Nc1ccc(C2CCOCC2)cc1 [Example 555]
60 nM,2 nM,–,CN1CCCC(c2ccc(Nc3nc(N4CCC[C@@H](NC(=O)Nc5nccs5)C4)c(F)cc3C(N)=O)cc2)C1 (stereo partly drawn) [Example 557]
380 nM,2 nM,–,CN1CCCC(c2ccc(Nc3nc(N4CCC[C@@H](NC(=O)Nc5nncs5)C4)c(F)cc3C(N)=O)cc2)C1 (stereo partly drawn) [Example 558]
180 nM,0.8 nM,–,CN1CCCC(c2ccc(Nc3nc(N4CCC[C@@H](NC(=O)Nc5nnc(C6CC6)s5)C4)c(F)cc3C(N)=O)cc2)C1 (stereo partly drawn) [Example 560]
140 nM,0.9 nM,–,CN1CCCC(c2ccc(Nc3nc(N4CCC[C@@H](NC(=O)Nc5nnc(C(C)(C)C)s5)C4)c(F)cc3C(N)=O)cc2)C1 (stereo partly drawn) [Example 561]
100 nM,1 nM,–,CN1CCCC(c2ccc(Nc3nc(N4CCC[C@@H](NC(=O)Nc5ncc(F)s5)C4)c(F)cc3C(N)=O)cc2)C1 (stereo partly drawn) [Example 564]
